In patent publication US20090105270A1, “Kinase inhibition and anticancer therapy” (priority 2007, published 2009):

Key:
PKCθ(h) = PKCθ(h) (Homo sapiens, UniProt Q04759); assay: Upstate kinase activity inhibition assay PKCθ(h); details: 40 min, read-out: percentage of enzyme activity that remains
JAK2(h) = molecular target: T1, JAK2(h) (Homo sapiens, UniProt O60674); assay: Upstate kinase activity inhibition assay JAK2(h); type: biochemical
T1 construct: purchased Upstate (KinaseProfiler service)
T1 sequence (O60674 whole entry): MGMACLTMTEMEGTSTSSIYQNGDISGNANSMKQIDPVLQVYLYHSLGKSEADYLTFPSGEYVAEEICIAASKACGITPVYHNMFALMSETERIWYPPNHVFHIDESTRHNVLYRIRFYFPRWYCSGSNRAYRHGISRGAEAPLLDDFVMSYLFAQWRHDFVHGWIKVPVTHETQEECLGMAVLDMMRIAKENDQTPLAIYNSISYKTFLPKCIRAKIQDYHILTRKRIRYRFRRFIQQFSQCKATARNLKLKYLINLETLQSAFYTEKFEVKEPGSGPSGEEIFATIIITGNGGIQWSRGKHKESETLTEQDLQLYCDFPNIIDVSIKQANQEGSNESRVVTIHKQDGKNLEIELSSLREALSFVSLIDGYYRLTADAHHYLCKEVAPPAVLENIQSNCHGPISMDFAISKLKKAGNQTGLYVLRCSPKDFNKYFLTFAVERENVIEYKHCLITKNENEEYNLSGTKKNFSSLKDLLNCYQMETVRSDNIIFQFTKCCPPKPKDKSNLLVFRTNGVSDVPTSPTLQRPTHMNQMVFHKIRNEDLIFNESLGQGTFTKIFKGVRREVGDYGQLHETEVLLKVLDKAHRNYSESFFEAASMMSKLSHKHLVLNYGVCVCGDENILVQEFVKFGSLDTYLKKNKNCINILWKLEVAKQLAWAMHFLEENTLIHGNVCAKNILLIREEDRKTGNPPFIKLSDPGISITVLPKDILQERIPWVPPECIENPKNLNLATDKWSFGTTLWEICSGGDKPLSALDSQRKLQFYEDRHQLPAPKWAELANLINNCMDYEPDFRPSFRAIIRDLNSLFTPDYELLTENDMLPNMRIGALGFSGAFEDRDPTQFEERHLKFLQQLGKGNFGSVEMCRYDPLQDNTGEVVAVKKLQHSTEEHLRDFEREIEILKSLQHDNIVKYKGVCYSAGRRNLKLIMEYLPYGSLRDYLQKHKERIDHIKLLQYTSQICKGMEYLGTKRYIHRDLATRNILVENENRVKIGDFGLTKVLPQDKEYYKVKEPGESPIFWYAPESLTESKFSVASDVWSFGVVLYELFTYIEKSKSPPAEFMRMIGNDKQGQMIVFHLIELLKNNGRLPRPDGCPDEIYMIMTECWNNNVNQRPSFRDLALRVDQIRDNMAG

Sequence of PKCθ(h) (Q04759 whole entry): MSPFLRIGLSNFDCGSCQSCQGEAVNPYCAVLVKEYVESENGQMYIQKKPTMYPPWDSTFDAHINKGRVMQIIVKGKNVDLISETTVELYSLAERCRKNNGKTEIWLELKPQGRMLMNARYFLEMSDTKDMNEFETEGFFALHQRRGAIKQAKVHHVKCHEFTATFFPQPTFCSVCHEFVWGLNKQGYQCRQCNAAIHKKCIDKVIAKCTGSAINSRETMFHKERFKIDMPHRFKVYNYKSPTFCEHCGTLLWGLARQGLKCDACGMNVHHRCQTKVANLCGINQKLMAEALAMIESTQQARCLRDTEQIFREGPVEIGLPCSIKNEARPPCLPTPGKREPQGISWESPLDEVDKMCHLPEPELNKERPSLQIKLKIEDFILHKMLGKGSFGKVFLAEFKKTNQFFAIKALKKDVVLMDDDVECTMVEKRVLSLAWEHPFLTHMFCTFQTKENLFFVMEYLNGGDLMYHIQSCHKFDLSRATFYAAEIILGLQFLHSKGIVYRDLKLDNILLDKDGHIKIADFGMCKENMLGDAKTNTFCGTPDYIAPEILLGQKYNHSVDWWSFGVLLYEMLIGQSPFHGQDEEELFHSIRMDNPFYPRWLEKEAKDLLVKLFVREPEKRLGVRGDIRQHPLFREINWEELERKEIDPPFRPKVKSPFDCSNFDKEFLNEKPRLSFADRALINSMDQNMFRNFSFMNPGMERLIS

Question: With `Cc1cc(Nc2cc(N3CCN(C)CC3)nc(Sc3ccc(NC(=O)C4CC4)cc3)n2)n[nH]1` [Compound E, Cyclopropane carboxylic acid {4-[4-(4-methyl-piperazin-1-yl)-6-(5-methyl-2H-pyrazol-3-ylamino)-pyrimidin-2-ylsulphanyl]-phenyl}-amide] as the compound, how does the remaining activity at 0.2 µM (PKCθ(h)) read?
Answer: 25%

Question: And the remaining activity at 4 µM (PKCθ(h))?
Answer: 35%

Question: What about the “percentage of enzyme activity that remains” value (JAK2(h); 0.2 μM Compound E) of the same compound?
Answer: 75%

Question: What about the “percentage of enzyme activity that remains” value (JAK2(h); 4 μM Compound E) of the same compound?
Answer: 19%
